In patent publication EP1029246B1, “A METHOD AND DEVICE FOR PREVENTING IMMUNOGLOBULIN DEGRADATION IN EXTERNAL SECRETIONS” (priority 1997, dated 1999):

Key:
[1] = test system: anti-Borrelia IgM serum; assay: Protection of anti-Borrelia IgM in spiked feces by various substances (ELISA), Example 4; details: 33°C for 3 hours; for ELISA OD: concentrations of all cations 0.219M, dilution in ELISA 1/3000
Method: (§1) 25 µl of a high titred anti-Borrelia IgM serum obtained from a patient with acute Borreliosis was added to 5 tubes, each containing 50 mg of a fecal sample from a healthy volunteer. Following vortexing for 30 seconds, 500 µl of the normotonic (319 mOsm/L) solutions (i) 1 X PBS (7,7 mM Na2HPO4, 2,99 mM NaH2PO4, 145 mM NaCl), (ii) 64.5 mM zinc gluconate, (iii) 64,5 mM MgCl2, (iv) 64.5 mM magnesium gluconate or (v) 96.9 mM NaCl, the latter four all dissolved in 1/3 X PBS to obtain the same osmolarity as 1 X PBS, i.e. 319 mOsm/L was added to each of the five tubes. Following vortexing for 30 seconds, the tubes were subsequently incubated at 30°C for 5 hours. Thereafter, 250 µl of a protease inhibitor cocktail (see above) was added to each of the 5 tubes. Solid matter was suspended by vortexing for another 30 seconds followed by centrifugation at 13,000 x g for 10 min. The supernatants were stored at -70°C prior to examination or immediately tested in a commercially available anti-Borrelia IgM ELISA. For the purpose of comparison, 25 µl of the anti-Borrelia IgM serum was run in the immunoassay.
50 milligrams of feces and 25 µl of anti-Borrelia IgM serum were incubated at 33°C for 3 hours with each of the substances described in table 2. Following incubation, the fecal samples were processed and the extracts were obtained as described in example 3.

[2] = test system: anti-Borrelia IgM antibodies; assay: Protection of anti-Borrelia IgM in spiked feces by equimolar zinc compounds (ELISA), Example 5; details: 37°C for 4 hours, zinc concentration = 0.219M; for ELISA OD: dilution in ELISA 1/1450
Method: 50 milligrams of feces and 25 µl of anti-Borrelia IgM serum was incubated at 37°C for 4 hours with equimolar concentrations of zinc gluconate, zinc chloride and zinc acetate (zinc concentration = 0.219M).

[3] = test system: anti-Borrelia IgM antibodies; assay: Long term stability of IgM antibodies extracted from spiked fecal samples, re-analysis in anti-Borrelia IgM ELISA, Example 2; details: extract stored at -70°C for 4 months, incubated 30°C for 5 hours
Method: (§2) 50 µl of a high titer anti-Borrelia IgM serum obtained from a patient with acute Borreliosis was added to 3 tubes each containing 50 mg of a fecal sample from a healthy volunteer. Following vortexing for 30 seconds, the tubes were incubated at 30°C for 5 hours in the presence or absence of 150 µl of 10% zinc gluconate (Gluconal® ZN-G; Glucona B.V., Veendam, The Netherlands). Following incubation, 150 µl of a protease inhibitor cocktail (0.2 mM 4-{2-aminoethyl}benzenesulfonylfluoride [Calbiochem], 1 µg of aprotinin [Sigma] per ml, 10 µM leupeptin [Sigma], and 3.25 µM bestatin [Boehringer Mannheim, Indianapolis, USA]) was added. After vortexing, the tubes were centrifuged at 13,000 x g for 10 min. The supernatants were stored at -70°C or immediately tested in a commercially available anti-Borrelia IgM ELISA (IDELA™ Borrelia burgdorferi IgM, DAKO Diagnostics Ltd., Cambridgeshire, UK). For the purpose of comparison, 50 µl of anti-Borrelia IgM serum was run in the immunoassay.
The fecal extracts described in Example 1 were stored at -70°C for 4 months, and then re-analyzed in the anti-Borrelia IgM ELISA to check the long term stability of the antibodies stored in the presence or absence of 10% zinc gluconate.

[4] = test system: anti-CTB IgA
[5] = test system: anti-Borrelia IgM; assay: Effect of normotonic (319 mOsm/L) solutions on degradation of anti-Borrelia IgM in spiked feces, Example 3
Method: as §1, with “immunoassay. […]” for “immunoassay.”

[6] = test system: anti-Borrelia IgM antibodies; assay: Inhibition of degradation of anti-Borrelia IgM in spiked fecal samples (anti-Borrelia IgM ELISA), Example 1; details: for Initial ELISA, O.D.: feces plus anti-Borrelia IgM serum plus 10% zinc gluconate, 30°C for 5 hours
Method: In example numbers 1-5, fecal samples are spiked with a single analyte of interest, i.e. a predetermined amount of a high titered anti-Borrelia IgM serum is added to fecal samples in order to determine the extent to which the protective solution of the present invention prevents the degradation of the particular analyte added.
as §2
The results are given in figure 4, Y-axis: ELISA results (O.D. value); X-axis: F+S; feces plus anti-Borrelia IgM serum incubated at 30°C or on ice for 5 hours, F+S+ZG; feces plus anti-Borrelia IgM serum plus zinc gluconate incubated at 30°C for 5 hours. […]

Copper sulphate
ELISA OD [1]: 0.018 OD

N=C(NCCCCCCNC(=N)NC(=N)Nc1ccc(Cl)cc1)NC(=N)Nc1ccc(Cl)cc1 [Chlorhexidine gluconate]
ELISA OD [1]: 0.003 OD

Manganese chlonde
ELISA OD [1]: 0.184 OD

Copper acetate
ELISA OD [1]: 0.042 OD

O=C([O-])[C@H](O)[C@@H](O)[C@H](O)[C@H](O)CO.[Na+] [Sodium gluconate]
ELISA OD [1]: 0.087 OD

Zinc chloride [reference compound]
ELISA OD [2]: 0.011 OD

Sodium chloride
ELISA OD [1]: 0.043 OD

zinc gluconate
ELISA O.D. after 4 months ([3]; sample dilution 1/60): 2.48 O.D. | ELISA O.D. after 4 months ([3]; sample dilution 1/180): 2.40 O.D. | ELISA O.D. after 4 months ([3]; sample dilution 1/540): 1.75 O.D. | protection among the substances tested (Table 2) ([1]; cations 0.219M): gives the best protection | ELISA OD [1]: 0.360 OD | capacity of the IgA molecules to bind antigen (CTB) [4]: preserved | inhibition of degradation of IgA (figure 6) [4]: significantly inhibit the degradation | inhibition of degradation of anti-Borrelia IgM (Figure 5) ([5]; 64.5 mM in 1/3 X PBS, normotonic (319 mOsm/l), 30°C for 5 hours in feces): substantially inhibits the degradation | efficiency in conferring protection among the examined compounds (Figure 5) ([5]; compared with normotonic PBS, MgCl2, magnesium gluconate, NaCl, 30°C for 5 hours): the most efficient | inhibition of degradation of anti-Borrelia IgM antibodies (figure 4) ([6]; 10% solution, fecal samples at 30°C for 5 hours): substantially inhibits the degradation | Initial ELISA, O.D. ([6]; sample dilution 1/60): 2.59 O.D. | Initial ELISA, O.D. ([6]; sample dilution 1/180): 2.57 O.D. | Initial ELISA, O.D. ([6]; sample dilution 1/540): 2.08 O.D. | protection of anti-Borrelia IgM antibodies from degradation (Table 3) [2]: significantly protects | ELISA OD [2]: 0.910 OD

Zinc acetate [reference compound]
ELISA OD [2]: 0.281 OD
